From patent publication US9969742B2, “Imidazotriazinone compounds” (Ironwood Pharmaceuticals, Inc., priority 2012, dated 2018)
Read-outs that look alike come from different tables or passages of the source. Values belong to the molecule of their own block, whether it stands above or below them.

Tests used:
Assay type in all cases: biochemical
PDE9A2 = target: T1, PDE9A2 (Homo sapiens, UniProt O76083); assay: Phosphodiesterase enzyme screening assay, PDE9A2; settings: read-out: Band (PDE9A2 IC50)
T1 construct: purchased Reaction Biology Corporation, Malvern, Pa
T1 sequence (O76083 1-533 isoform O76083-2): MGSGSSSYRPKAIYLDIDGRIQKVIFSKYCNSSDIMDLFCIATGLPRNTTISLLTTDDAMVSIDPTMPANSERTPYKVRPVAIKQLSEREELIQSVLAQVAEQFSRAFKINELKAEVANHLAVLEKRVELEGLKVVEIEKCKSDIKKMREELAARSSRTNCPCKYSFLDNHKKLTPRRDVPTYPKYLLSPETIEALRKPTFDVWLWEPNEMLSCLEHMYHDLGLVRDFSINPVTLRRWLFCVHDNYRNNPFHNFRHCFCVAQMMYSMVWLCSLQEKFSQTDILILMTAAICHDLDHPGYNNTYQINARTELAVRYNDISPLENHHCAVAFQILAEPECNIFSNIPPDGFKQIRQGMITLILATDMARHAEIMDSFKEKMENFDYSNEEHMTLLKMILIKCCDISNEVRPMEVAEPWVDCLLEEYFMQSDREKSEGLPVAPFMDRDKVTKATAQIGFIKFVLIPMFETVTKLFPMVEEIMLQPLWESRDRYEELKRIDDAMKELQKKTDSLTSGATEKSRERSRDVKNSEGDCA
In short: (§1)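 Microfluidic mobility-shift assay; values from quadruplicate wells relative to controls. Conditions: 4.0 μM cGMP, 5 mM MgCl2, pH 7.5 HEPES, 1 h R.T., EDTA stop.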

PDE1A = target: T2, PDE1A (Homo sapiens, UniProt P54750); assay: Phosphodiesterase enzyme screening assay, PDE1A
T2 construct: purchased Reaction Biology Corporation, Malvern, Pa
T2 sequence (P54750 whole entry): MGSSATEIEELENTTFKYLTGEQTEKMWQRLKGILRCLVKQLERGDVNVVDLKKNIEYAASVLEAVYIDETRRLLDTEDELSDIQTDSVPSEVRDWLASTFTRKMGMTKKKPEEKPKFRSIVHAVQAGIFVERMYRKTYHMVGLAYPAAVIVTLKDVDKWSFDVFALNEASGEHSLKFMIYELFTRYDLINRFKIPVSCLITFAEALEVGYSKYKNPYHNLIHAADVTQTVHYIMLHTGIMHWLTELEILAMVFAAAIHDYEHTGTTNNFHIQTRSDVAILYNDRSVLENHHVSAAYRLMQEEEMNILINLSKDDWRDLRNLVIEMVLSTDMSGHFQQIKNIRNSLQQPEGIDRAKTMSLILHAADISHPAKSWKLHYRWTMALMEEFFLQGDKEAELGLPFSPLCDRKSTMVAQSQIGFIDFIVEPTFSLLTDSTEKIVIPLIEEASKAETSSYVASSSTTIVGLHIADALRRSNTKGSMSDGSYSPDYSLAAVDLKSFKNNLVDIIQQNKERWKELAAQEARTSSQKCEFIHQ
In short: as §1

PDE1B = target: T3, PDE1B (Homo sapiens, UniProt Q01064); assay: Phosphodiesterase enzyme screening assay, PDE1B
T3 construct: purchased Reaction Biology Corporation, Malvern, Pa
T3 sequence (Q01064 whole entry): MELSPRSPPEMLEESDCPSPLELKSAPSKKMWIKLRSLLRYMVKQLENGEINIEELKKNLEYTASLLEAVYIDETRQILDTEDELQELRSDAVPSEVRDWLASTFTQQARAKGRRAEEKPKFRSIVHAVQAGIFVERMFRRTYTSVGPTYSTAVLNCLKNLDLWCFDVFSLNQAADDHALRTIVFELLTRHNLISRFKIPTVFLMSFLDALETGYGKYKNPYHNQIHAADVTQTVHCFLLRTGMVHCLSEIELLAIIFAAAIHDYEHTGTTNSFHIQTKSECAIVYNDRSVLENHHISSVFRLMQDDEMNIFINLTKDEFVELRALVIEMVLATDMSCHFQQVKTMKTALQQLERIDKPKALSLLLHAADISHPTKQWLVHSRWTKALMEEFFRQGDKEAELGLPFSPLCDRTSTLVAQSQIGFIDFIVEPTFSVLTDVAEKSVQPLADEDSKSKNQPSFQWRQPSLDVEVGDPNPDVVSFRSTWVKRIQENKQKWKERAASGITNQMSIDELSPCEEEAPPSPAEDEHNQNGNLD
In short: as §1

[1] = 4.0 μM cGMP substrate, 1 hour at R.T.
[2] = ratio of IC50 values PDE1A / PDE9A2, value greater than 1 indicates greater selectivity for PDE9A2
[3] = ratio of IC50 values PDE1B / PDE9A2, value greater than 1 indicates greater selectivity for PDE9A2
[4] = ratio of IC50 values, PDE1A versus PDE9A2, value greater than 1 indicates greater selectivity for PDE9A2
[5] = ratio of IC50 values, PDE1B versus PDE9A2, value greater than 1 indicates greater selectivity for PDE9A2
[6] = Table 1, 10 concentrations, 4.0 μM cGMP substrate, 1 hour at R.T.
[7] = Table 1, ratio of IC50 values, value greater than 1 indicates greater selectivity for PDE9A2
[8] = Table 2, ratio of IC50 values, value greater than 1 indicates greater selectivity for PDE9A2

IC50 (PDE9A2; [1]): < 1000 nM | PDE1A selectivity (versus PDE9A2) (PDE1A; [2]): 155 | PDE1B selectivity (versus PDE9A2) (PDE1B; [3]): 149
Structure (SMILES): Cc1cnccc1-c1ncc2c(=O)[nH]c(C3CN(Cc4cn5ccccc5n4)CC3C)nn12 (single isomer, unassigned; (+)) [(+)-2-((3,4-trans)-1-(imidazo[1,2-a]pyridin-2-ylmethyl)-4-methylpyrrolidin-3-yl)-7-(3-methylpyridin-4-yl)imidazo[5,1-f][1,2,4]triazin-4(3H)-one]

IC50 (PDE9A2): < 1000 nM | PDE1A selectivity (versus PDE9A2) (PDE1A; [4]): 128 | PDE1B selectivity (versus PDE9A2) (PDE1B; [5]): 230
Structure (SMILES): Cc1ccncc1-c1ncc2c(=O)[nH]c(C3CN(Cc4cn5ccccc5n4)CC3C)nn12 (single isomer, unassigned; (+)) [(+)-2-((3,4-trans)-1-(imidazo[1,2-a]pyridin-2-ylmethyl)-4-methylpyrrolidin-3-yl)-7-(4-methylpyridin-3-yl)imidazo[5,1-f][1,2,4]triazin-4(3H)-one]

IC50 (PDE9A2): < 1000 nM | PDE1A selectivity (versus PDE9A2) (PDE1A; [4]): 326 | PDE1B selectivity (versus PDE9A2) (PDE1B; [5]): 661
Structure (SMILES): Cc1ccccc1-c1ncc2c(=O)[nH]c(C3CN(Cc4cn5ccccc5n4)CC3C)nn12 (single isomer, unassigned; (+)) [(+)-2-((3,4-trans)-1-(imidazo[1,2-a]pyridin-2-ylmethyl)-4-methylpyrrolidin-3-yl)-7-(o-tolyl)imidazo[5,1-f][1,2,4]triazin-4(3H)-one]

IC50 (PDE9A2; [1]): < 1000 nM | PDE1A selectivity (versus PDE9A2) (PDE1A; [2]): 51 | PDE1B selectivity (versus PDE9A2) (PDE1B; [3]): 48
Structure (SMILES): CCC(CC)c1ncc2c(=O)[nH]c(C3CN(Cc4cn5ccccc5n4)CC3C)nn12 (single isomer, unassigned; (+)) [(+)-2-((3,4-trans)-1-(imidazo[1,2-a]pyridin-2-ylmethyl)-4-methylpyrrolidin-3-yl)-7-(pentan-3-yl)imidazo[5,1-f][1,2,4]triazin-4(3H)-one]

IC50 (PDE9A2; [6]): < 1000 nM | PDE1A selectivity (versus PDE9A2) (PDE1A; [7]): 754 | PDE1B selectivity (versus PDE9A2) (PDE1B; [7]): 734
Structure (SMILES): CC1CN(Cc2cn3ccccc3n2)CC1c1nn2c(C3CCOCC3)ncc2c(=O)[nH]1 (single isomer, unassigned; (+)) [(+)-2-((3,4-trans)-1-(imidazo[1,2-a]pyridin-2-ylmethyl)-4-methylpyrrolidin-3-yl)-7-(tetrahydro-2H-pyran-4-yl)imidazo[5,1-f][1,2,4]triazin-4(3H)-one]

IC50 (PDE9A2; [6]): < 1000 nM | PDE1A selectivity (versus PDE9A2) (PDE1A; [7]): 232 | PDE1B selectivity (versus PDE9A2) (PDE1B; [7]): 633
Structure (SMILES): CC1CN(Cc2ccc3nccn3n2)CC1c1nn2c(C3CCOCC3)ncc2c(=O)[nH]1 (single isomer, unassigned; (+)) [(+)-2-((3,4-trans)-1-(imidazo[1,2-b]pyridazin-6-ylmethyl)-4-methylpyrrolidin-3-yl)-7-(tetrahydro-2H-pyran-4-yl)imidazo[5,1-f][1,2,4]triazin-4(3H)-one]

IC50 (PDE9A2; [6]): < 1000 nM | PDE1A selectivity (versus PDE9A2) (PDE1A; [7]): 145 | PDE1B selectivity (versus PDE9A2) (PDE1B; [7]): 335
Structure (SMILES): CC1CN(Cc2ccc3cnccc3c2)CC1c1nn2c(C3CCOCC3)ncc2c(=O)[nH]1 (single isomer, unassigned; (+)) [(+)-2-((3,4-trans)-1-(isoquinolin-6-ylmethyl)-4-methylpyrrolidin-3-yl)-7-(tetrahydro-2H-pyran-4-yl)imidazo[5,1-f][1,2,4]triazin-4(3H)-one]

IC50 (PDE9A2; [6]): < 1000 nM | PDE1A selectivity (versus PDE9A2) (PDE1A; [7]): 223 | PDE1B selectivity (versus PDE9A2) (PDE1B; [7]): 893
Structure (SMILES): CC1CN(Cc2ccc3ccncc3c2)CC1c1nn2c(C3CCOCC3)ncc2c(=O)[nH]1 (single isomer, unassigned; (+)) [(+)-2-((3,4-trans)-1-(isoquinolin-7-ylmethyl)-4-methylpyrrolidin-3-yl)-7-(tetrahydro-2H-pyran-4-yl) imidazo [5,1-f] [1,2,4] triazin-4(3H)-one]

IC50 (PDE9A2; [1]): < 1000 nM | PDE1A selectivity (versus PDE9A2) (PDE1A; [2]): 76 | PDE1B selectivity (versus PDE9A2) (PDE1B; [3]): 83
Structure (SMILES): CC1CN(Cc2ccccc2)CC1c1nn2c(-c3ccccc3F)ncc2c(=O)[nH]1 (single isomer, unassigned; (+)) [(+)-2-((3,4-trans)-1-benzyl-4-methylpyrrolidin-3-yl)-7-(2-fluorophenyl)imidazo[5,1-f][1,2,4]triazin-4(3H)-one]

IC50 (PDE9A2): < 1000 nM | PDE1A selectivity (versus PDE9A2) (PDE1A; [4]): 70 | PDE1B selectivity (versus PDE9A2) (PDE1B; [5]): 113
Structure (SMILES): CC1CN(Cc2ccccc2)CC1c1nn2c(-c3cccc(F)c3)ncc2c(=O)[nH]1 (single isomer, unassigned; (+)) [(+)-2-((3,4-trans)-1-benzyl-4-methylpyrrolidin-3-yl)-7-(3-fluorophenyl)imidazo[5,1-f][1,2,4]triazin-4(3H)-one]

IC50 (PDE9A2; [1]): < 1000 nM | PDE1A selectivity (versus PDE9A2) (PDE1A; [2]): 167 | PDE1B selectivity (versus PDE9A2) (PDE1B; [3]): 144
Structure (SMILES): Cc1cnccc1-c1ncc2c(=O)[nH]c(C3CN(Cc4ccccc4)CC3C)nn12 (single isomer, unassigned; (+)) [(+)-2-((3,4-trans)-1-benzyl-4-methylpyrrolidin-3-yl)-7-(3-methylpyridin-4-yl) imidazo [5,1-f] [1,2,4] triazin-4 (3H)-one]

IC50 (PDE9A2; [6]): < 1000 nM | PDE1A selectivity (versus PDE9A2) (PDE1A; [7]): 309 | PDE1B selectivity (versus PDE9A2) (PDE1B; [7]): 496
Structure (SMILES): CC1CN(Cc2ccccc2)CC1c1nn2c(C3CCC(F)(F)CC3)ncc2c(=O)[nH]1 (single isomer, unassigned; (+)) [(+)-2-((3,4-trans)-1-benzyl-4-methylpyrrolidin-3-yl)-7-(4,4-difluorocyclohexyl)imidazo[5,1-f][1,2,4]triazin-4(3H)-one]

IC50 (PDE9A2): < 1000 nM | PDE1A selectivity (versus PDE9A2) (PDE1A; [4]): 174 | PDE1B selectivity (versus PDE9A2) (PDE1B; [5]): 143
Structure (SMILES): Cc1cc(F)c(F)cc1-c1ncc2c(=O)[nH]c(C3CN(Cc4ccccc4)CC3C)nn12 (single isomer, unassigned; (+)) [(+)-2-((3,4-trans)-1-benzyl-4-methylpyrrolidin-3-yl)-7-(4,5-difluoro-2-methylphenyl)imidazo[5,1-f][1,2,4]triazin-4(3H)-one]

IC50 (PDE9A2): < 1000 nM | PDE1A selectivity (versus PDE9A2) (PDE1A; [4]): 220 | PDE1B selectivity (versus PDE9A2) (PDE1B; [5]): 286
Structure (SMILES): CC1CN(Cc2ccccc2)CC1c1nn2c(-c3ccc(F)cc3)ncc2c(=O)[nH]1 (single isomer, unassigned; (+)) [(+)-2-((3,4-trans)-1-benzyl-4-methylpyrrolidin-3-yl)-7-(4-fluorophenyl)imidazo[5,1-f][1,2,4]triazin-4(3H)-one]

IC50 (PDE9A2): < 1000 nM | PDE1A selectivity (versus PDE9A2) (PDE1A; [4]): 148 | PDE1B selectivity (versus PDE9A2) (PDE1B; [5]): 379
Structure (SMILES): Cc1ccncc1-c1ncc2c(=O)[nH]c(C3CN(Cc4ccccc4)CC3C)nn12 (single isomer, unassigned; (+)) [(+)-2-((3,4-trans)-1-benzyl-4-methylpyrrolidin-3-yl)-7-(4-methylpyridin-3-yl)imidazo[5,1-f][1,2,4]triazin-4(3H)-one]

IC50 (PDE9A2): < 1000 nM | PDE1A selectivity (versus PDE9A2) (PDE1A; [4]): 461 | PDE1B selectivity (versus PDE9A2) (PDE1B; [5]): 531
Structure (SMILES): Cc1ccccc1-c1ncc2c(=O)[nH]c(C3CN(Cc4ccccc4)CC3C)nn12 (single isomer, unassigned; (+)) [(+)-2-((3,4-trans)-1-benzyl-4-methylpyrrolidin-3-yl)-7-(o-tolyl)imidazo[5,1-f][1,2,4]triazin-4(3H)-one]

IC50 (PDE9A2): < 1000 nM | PDE1A selectivity (versus PDE9A2) (PDE1A; [4]): 175 | PDE1B selectivity (versus PDE9A2) (PDE1B; [5]): 86
Structure (SMILES): CCC(CC)c1ncc2c(=O)[nH]c(C3CN(Cc4ccccc4)CC3C)nn12 (single isomer, unassigned; (+)) [(+)-2-((3,4-trans)-1-benzyl-4-methylpyrrolidin-3-yl)-7-(pentan-3-yl)imidazo[5,1-f][1,2,4]triazin-4(3H)-one]

IC50 (PDE9A2): < 1000 nM | PDE1A selectivity (versus PDE9A2) (PDE1A; [4]): 4 | PDE1B selectivity (versus PDE9A2) (PDE1B; [5]): 12
Structure (SMILES): CC1CN(Cc2ccccc2)CC1c1nn2c(-c3ccccc3)ncc2c(=O)[nH]1 (single isomer, unassigned; (+)) [(+)-2-((3,4-trans)-1-benzyl-4-methylpyrrolidin-3-yl)-7-phenylimidazo[5,1-f][1,2,4]triazin-4(3H)-one]

IC50 (PDE9A2; Table 2, 10 concentrations, 4.0 μM cGMP substrate, 1 hour at R.T.): < 1000 nM | PDE1A selectivity (versus PDE9A2) (PDE1A; [8]): 71 | PDE1B selectivity (versus PDE9A2) (PDE1B; [8]): 89
Structure (SMILES): CC1CN(CCc2cncnc2)CC1c1nn2c(C3CCOCC3)ncc2c(=O)[nH]1 (single isomer, unassigned; (+)) [(+)-2-((3,4-trans)-4-methyl-1-(2-(pyrimidin-5-yl)ethyl)pyrrolidin-3-yl)-7-(tetrahydro-2H-pyran-4-yl)imidazo[5,1-f][1,2,4]triazin-4(3H)-one]

IC50 (PDE9A2; [6]): < 1000 nM | PDE1A selectivity (versus PDE9A2) (PDE1A; [7]): 184 | PDE1B selectivity (versus PDE9A2) (PDE1B; [7]): 213
Structure (SMILES): CC1CN(Cc2ccccc2N2CCCC2)CC1c1nn2c(C3CCOCC3)ncc2c(=O)[nH]1 (single isomer, unassigned; (+)) [(+)-2-((3,4-trans)-4-methyl-1-(2-(pyrrolidin-1-yl)benzyl)pyrrolidin-3-yl)-7-(tetrahydro-2H-pyran-4-yl)imidazo[5,1-f][1,2,4]triazin-4(3H)-one]

IC50 (PDE9A2; [1]): < 1000 nM | PDE1A selectivity (versus PDE9A2) (PDE1A; ratio of IC50 values PDE1A / PDE9A2, value greater than 1 = greater selectivity for PDE9A2): 173 | PDE1B selectivity (versus PDE9A2) (PDE1B; ratio of IC50 values PDE1B / PDE9A2, value greater than 1 = greater selectivity for PDE9A2): 24
Structure (SMILES): CC1CN(Cc2ccccc2OC(F)(F)F)CC1c1nn2c(C3CCOCC3)ncc2c(=O)[nH]1 (single isomer, unassigned; (+)) [(+)-2-((3,4-trans)-4-methyl-1-(2-(trifluoromethoxy)benzyl)pyrrolidin-3-yl)-7-(tetrahydro-2H-pyran-4-yl)imidazo[5,1-f][1,2,4]triazin-4(3H)-one]
